Assay [1] has as its target T1, cGAS (Homo sapiens, UniProt Q8N884). Description: Cellular assay to measure cGAS activity (IFNb AlphaLISA in THP1 cells stimulated by RDG-Adenovirus-GFP). Type of assay: cell-based. Further details: host or cells: THP1 cells differentiated with PMA and stimulated with RDG-Adenovirus-GFP. The settings on record: PMA-differentiated THP1 cells, RDG-Adenovirus-GFP at 1000 MOI; inhibition of IFNb production as marker for cGAS activity. The method, then: Cellular assay to measure cGAS activity: Use THP1 cell line from ATCC to determine inhibition of cGAS activity by test compounds in human cells. Plate cells on 96-well plates at 0.2×10^6/well and differentiate with phorbol myristate acetate (PMA) at 37° C./5% CO2. After 24 hours, replace PMA containing media with media lacking PMA and further incubate overnight. Stimulate cells were then by RDG-Adenovirus-GFP (Vector Biolabs #1768) at 1000 MOI for 4 hours prior to the addition of test compounds. After overnight incubation, transfer 10 μL of the media from each well to a new plate for IFNb analysis as a marker for cGAS activity. Measure quantification of IFNb with an IFNb AlphaLISA Detection kit (Perkin Elmer AL3133F) by mixing the acceptor beads with the cell supernatant followed by the addition of the biotinylated antibody and donor beads. Measure the relative fluorescence signal produced from the interaction of the donor and acceptor beads by a PHERAStar AlphaLISA protocol and evaluate the inhibitory effect of a compound by plotting specific inhibition of IFNb production against log concentration of the test compound. Calculate IC50 values using a 4-parameter non-linear logistic equation (y=(S0+((SInf−S0)/(1+((qAC50/x)^nHill))))).
Background: In Alpha technology, singlet oxygen from a donor bead excites a nearby acceptor bead.

In assay [2] the target is T1, cGAS. Kind of assay: In vitro inhibition assay of cGAS activity (cGAMP production, RapidFire mass spectrometry). The format is biochemical. Further details: Insert cDNA encoding full-length of human cGAS; His6; made in house; host or cells: E. coli BL21(DE3). The conditions noted are these: 10 nM recombinant human cGAS, 60 nM 75-bp dsDNA, 50 μM ATP, 50 μM GTP, 3 hrs. The method, then:
Expression and Purification of Recombinant cGAS Protein: Insert cDNA encoding full-length of human cGAS into a modified bacterial expression vector containing an in-frame His6-tag. Induce the E. coli strain BL21(DE3) harboring the plasmid with 1 mM IPTG (Isopropyl β-D-1-thiogalactopyranoside) at 18° C. overnight. Purify the His6-tagged cGAS protein over HISpur Ni-NTA resin in the presence of benzonase and RNase followed by Superdex 200 size exclusion chromatography with storage buffer (50 mM Tris-HCl pH 7.5, 300 mM NaCl, 1 mM DTT, 10% glycerol).
In vitro inhibition assay of cGAS activity: Add a 5 μL mixture containing 10 mM Tris-Cl pH 7.5, 50 mM NaCl, 5 mM MgCl2, 1 mM DTT, 0.01% Triton X-100, 60 nM 75-bp dsDNA, 50 μM ATP, 50 μM GTP, 10 nM of recombinant human cGAS, and serial dilutions of a test compound in DMSO to a 384-well plate and incubate at ambient temperature for 3 hrs. Quench the reaction by the addition of 100 μL of stop solution containing 0.1% formic acid and 0.1 μM internal standard (3′3′-difluoro cGAMP). Measure the amount of cGAMP produced by RapidFire 365 mass spectrometry and evaluate inhibitory effect of a compound by plotting percent specific inhibition of cGAMP production against log concentration of the test compound. Calculate IC50 values using a 4-parameter non-linear logistic equation (y=(S0+((Sinf−S0)/(1+((qAC50/x)^nHill))))).

Consider 32 compounds from patent publication US20240246979A1, “cGAS INHIBITORS” (Eli Lilly and Company, priority 2022, published 2024).

pIC50: −log10 of the molar value.

T1 sequence (Q8N884 whole entry): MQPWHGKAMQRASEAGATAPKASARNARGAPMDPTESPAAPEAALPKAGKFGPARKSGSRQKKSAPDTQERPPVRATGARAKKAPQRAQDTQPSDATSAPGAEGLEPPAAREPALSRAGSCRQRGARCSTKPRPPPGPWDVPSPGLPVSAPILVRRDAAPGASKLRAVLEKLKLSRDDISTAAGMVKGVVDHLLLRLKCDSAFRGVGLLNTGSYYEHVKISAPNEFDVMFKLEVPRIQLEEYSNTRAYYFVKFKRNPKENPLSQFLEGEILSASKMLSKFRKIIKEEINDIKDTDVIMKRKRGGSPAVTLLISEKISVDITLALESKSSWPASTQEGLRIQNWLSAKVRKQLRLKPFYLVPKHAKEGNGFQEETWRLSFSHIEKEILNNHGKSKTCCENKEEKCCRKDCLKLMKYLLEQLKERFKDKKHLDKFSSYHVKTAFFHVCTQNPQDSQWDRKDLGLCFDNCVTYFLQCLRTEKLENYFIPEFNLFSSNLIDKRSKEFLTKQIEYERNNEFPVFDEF

In general, pIC50 refers to −log10 of the IC50, conventionally taken in molar units. As for `Cn1ncc(-c2cc(Cl)c(Cl)c3[nH]c4c(c23)CC(=O)NC[C@H]4CCO)n1` (single isomer, unassigned) [Example 8A], the negative logarithm of the IC50 (pIC50) against cGAS [1] is 6.77; at cGAS [2] it was 7.81.
On to `Cn1ncc(-c2cc(Cl)c(Cl)c3[nH]c4c(c23)CC(=O)NC[C@H]4CCO)n1` (single isomer, unassigned) [Example 8B], for which the pIC50 is 5.50 against cGAS [1] and 6.67 on cGAS [2].
As to `C[C@@H]1C(=O)NCCc2[nH]c3c(Cl)c(Cl)cc(NC(=O)CO)c3c21` (single isomer, unassigned) [Example 12A], the pIC50 is 6.45 against cGAS [1] and 7.79 at cGAS [2].
In the same order, the values of `C[C@@H]1C(=O)NCCc2[nH]c3c(Cl)c(Cl)cc(NC(=O)CO)c3c21` (single isomer, unassigned) [Example 12B] are 5.77 and 6.13.
`C[C@@H]1C(=O)NCCc2[nH]c3c(Cl)c(Cl)cc(OCCCO)c3c21` (single isomer, unassigned) [Example 14A]: the pIC50 on cGAS [1] is 6.46; at cGAS [2] it was 8.14.
For `C[C@@H]1C(=O)NCCc2[nH]c3c(Cl)c(Cl)cc(OCCCO)c3c21` (single isomer, unassigned) [Example 14B], the pIC50 against cGAS [1] is 5.35; at cGAS [2] it was 6.52.
As for `CCOc1cc(Cl)c(Cl)c2[nH]c3c(c12)[C@H](C)C(=O)NCC3` (single isomer, unassigned) [Example 15A], the pIC50 at cGAS [1] is 6.10; at cGAS [2], 7.65.
Regarding `CCOc1cc(Cl)c(Cl)c2[nH]c3c(c12)[C@H](C)C(=O)NCC3` (single isomer, unassigned) [Example 15B], the negative logarithm of the IC50 (pIC50) is 5.09 against cGAS [1] and 5.96 on cGAS [2].
With `C[C@@H]1C(=O)NCCc2[nH]c3c(Cl)c(Cl)cc(OCC#N)c3c21` (single isomer, unassigned) [Example 16A], the pIC50 was 6.06 against cGAS [1] and 8.66 on cGAS [2].
Take `C[C@@H]1C(=O)NCCc2[nH]c3c(Cl)c(Cl)cc(OCC#N)c3c21` (single isomer, unassigned) [Example 16B]: the pIC50 at cGAS [1] and at cGAS [2] was 6.00 each time.
With `C[C@@H]1C(=O)NCCc2[nH]c3c(Cl)c(Cl)cc(OCC(N)=O)c3c21` (single isomer, unassigned) [Example 17A], the pIC50 against cGAS [1] was 6.07; on cGAS [2], 7.65.
The matching figures for `C[C@@H]1C(=O)NCCc2[nH]c3c(Cl)c(Cl)cc(OCC(N)=O)c3c21` (single isomer, unassigned) [Example 17B]: 5.39 and 5.81.
Turning to `CC[C@H]1C(=O)NCCc2[nH]c3c(Cl)c(Cl)cc(OCC#N)c3c21` (single isomer, unassigned) [Example 35], the pIC50 was 5.43 on cGAS [1] and 7.36 at cGAS [2].
In the case of `CC[C@H]1C(=O)NCCc2[nH]c3c(Cl)c(Cl)cc(OCC#N)c3c21` (single isomer, unassigned) [Example 36], the pIC50 at cGAS [1] was 5.92; at cGAS [2], 5.40.
Consider `C[C@H]1C(=O)NCCc2[nH]c3c(Cl)c(Cl)cc(-c4cnn(C)n4)c3c21` (single isomer, unassigned) [Example 37], for which the pIC50 on cGAS [1] was 6.10; at cGAS [2] it was 7.52.
As for `COCC(=O)Nc1cc(Cl)c(Cl)c2[nH]c3c(c12)[C@@H](C)C(=O)NCC3` (single isomer, unassigned) [Example 40], the results for the pIC50 against cGAS [1] and at cGAS [2] were 6.10 and 7.56, respectively.
For the compound `COCC(=O)Nc1cc(Cl)c(Cl)c2[nH]c3c(c12)[C@@H](C)C(=O)NCC3` (single isomer, unassigned) [Example 41], the pIC50 against cGAS [1] is below 5.00; on cGAS [2], 5.14.
In the case of `C[C@H](O)C(=O)Nc1cc(Cl)c(Cl)c2[nH]c3c(c12)[C@@H](C)C(=O)NCC3` (single isomer, unassigned) [Example 42], the pIC50 was below 5.00 against cGAS [1] and 5.19 at cGAS [2].
Regarding `C[C@H](O)C(=O)Nc1cc(Cl)c(Cl)c2[nH]c3c(c12)[C@@H](C)C(=O)NCC3` (single isomer, unassigned) [Example 43], the pIC50 was 6.30 against cGAS [1] and 7.83 on cGAS [2].
Turning to `COCCNc1cc(Cl)c(Cl)c2[nH]c3c(c12)[C@@H](C)C(=O)NCC3` (single isomer, unassigned) [Example 47], the figures for the pIC50 on cGAS [1] and at cGAS [2] were 6.22 and 7.70, respectively.
On to `COCCNc1cc(Cl)c(Cl)c2[nH]c3c(c12)[C@@H](C)C(=O)NCC3` (single isomer, unassigned) [Example 48], for which the results for the pIC50 against cGAS [1] and on cGAS [2] were below 5.00 and 5.19, respectively.
Turning to `CC1C(=O)NCCc2[nH]c3c(Cl)c(Cl)cc(NCCO)c3c21` (single isomer, unassigned) [Example 50, 7,8-Dichloro-10-((2-hydroxyethyl)amino)-1-methyl-3,4,5,6-tetrahydroazepino[4,5-b]indol-2(1H)-one], the pIC50 against cGAS [1] was 6.54; on cGAS [2] it was 8.02.
Regarding `CC1C(=O)NCCc2c1c1c(NCCO)cc(Cl)c(Cl)c1n2C` (single isomer, unassigned) [Example 51, 7,8-Dichloro-10-((2-hydroxyethyl)amino)-1,6-dimethyl-3,4,5,6-tetrahydroazepino[4,5-b]indol-2(1H)-one], the values for the pIC50 against cGAS [1] and at cGAS [2] were 5.87 and 8.08, respectively.
For the compound `C[C@H]1C(=O)NCCc2[nH]c3c(Cl)c(Cl)cc(NCCCO)c3c21` (single isomer, unassigned) [Example 53], the pIC50 against cGAS [1] was 6.33; at cGAS [2] it was 7.76.
Take `C[C@H]1C(=O)NCCc2[nH]c3c(Cl)c(Cl)cc(NCCCO)c3c21` (single isomer, unassigned) [Example 54]: the pIC50 against cGAS [1] was 5.25; at cGAS [2] it was 5.37.
Consider `C[C@@H](O)CNc1cc(Cl)c(Cl)c2[nH]c3c(c12)[C@@H](C)C(=O)NCC3` (single isomer, unassigned) [Example 55], for which the pIC50 on cGAS [1] was 5.72; at cGAS [2], 7.33.
For the compound `C[C@@H](O)CNc1cc(Cl)c(Cl)c2[nH]c3c(c12)[C@@H](C)C(=O)NCC3` (single isomer, unassigned) [Example 56], the pIC50 at cGAS [1] was 5.21; at cGAS [2], 5.45.
In the case of `C[C@@H]1C(=O)NCCc2[nH]c3c(Cl)c(Cl)cc(N[C@H]4CCOC4)c3c21` (single isomer, unassigned) [Example 62], the pIC50 was 5.72 against cGAS [1] and 7.35 at cGAS [2].
On to `C[C@@H]1C(=O)NCCc2[nH]c3c(Cl)c(Cl)cc(N[C@H]4CCOC4)c3c21` (single isomer, unassigned) [Example 63], for which the figures for the pIC50 against cGAS [1] and on cGAS [2] were below 5.00 and 5.78, respectively.
For the compound `C[C@H]1C(=O)NCCc2[nH]c3c(Cl)c(Cl)cc(N[C@@H]4CCOC4)c3c21` (single isomer, unassigned) [Example 64], the pIC50 against cGAS [1] was 5.62; at cGAS [2], 7.42.
For the compound `C[C@H]1C(=O)NCCc2[nH]c3c(Cl)c(Cl)cc(N[C@@H]4CCOC4)c3c21` (single isomer, unassigned) [Example 65], the figures for the pIC50 against cGAS [1] and at cGAS [2] were at most 5.00 and 6.05, respectively.
In the same order, the values of `C[C@H]1C(=O)NCCc2[nH]c3c(Cl)c(Cl)cc(NCC(F)(F)CO)c3c21` (single isomer, unassigned) [Example 68, (R)-7,8-Dichloro-10-((2,2-difluoro-3-hydroxypropyl)amino)-1-methyl-3,4,5,6-tetrahydroazepino[4,5-b]indol-2(1H)-one or (S)-7,8-Dichloro-10-((2,2-difluoro-3-hydroxypropyl)amino)-1-methyl-3,4,5,6-tetrahydroazepino[4,5-b]indol-2(1H)-one] are 6.31 and 8.07.
